Assay type in all cases: cell-based
Assay [1] concerns Serrtia liquefaciens SL 1326 S. The assay is described as follows: MIC on strain not producing beta-lactamase, Serratia liquefaciens SL 1326 S (Table IV). The settings on record: SL1326S, not producing beta-lactamases. On the procedure: (§1) To evaluate the stability of these products towards beta-lactamases, their MIC was determined on isogenic strains producing and not producing beta-lactamases.
(§2) The results are expressed in μg/ml in Table IV.

In assay [2] the test system is Proteus vulgaris RL 99 bis. The assay is described as follows: MIC, in vitro dilution method, Proteus vulgaris RL 99 bis (Table III). To be noted: RL99BIS; Proteus vulgaris RL 99 bis; dilution method; read-out: MIC. Summed up: (§3)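 Bacteriostatic activity was determined in vitro by the dilution method against Gram-negative strains. Values are minimum inhibitory concentrations in μg/ml.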

The next assay has as its system Escherichia coli SOL 90. The assay is described as follows: MIC, in vitro dilution method, Escherichia coli SOL 90 (Table III). To be noted: SOL90; Escherichia coli SOL 90; dilution method; read-out: MIC. The gist of the method: as §3
Another assay has as its system Enterobacter RO 154. The assay is described as follows: MIC, in vitro dilution method, Enterobacter RO 154 (Table III). To be noted: RO154; Enterobacter RO 154; dilution method; read-out: MIC. The gist of the method:
as §3

A further assay relates to Klebsiella RO 30. Description: MIC, in vitro dilution method, Klebsiella RO 30 (Table III). The settings on record: RO30; Klebsiella RO 30; dilution method; read-out: MIC. Summed up: as §3
Another assay has as its system Citrobacter RL 49. Description: MIC, in vitro dilution method, Citrobacter RL 49 (Table III). To be noted: RL49; Citrobacter RL 49; dilution method; read-out: MIC. The gist of the method:
as §3

In another assay the test system is Serratia RL 72. Description: MIC, in vitro dilution method, Serratia RL 72 (Table III). To be noted: RL72. The gist of the method:
as §3

The next assay concerns Escherichia coli 255. The assay is described as follows: MIC on beta-lactamase producing strain Escherichia coli 255 (Table IV). To be noted: Escherichia coli 255, producing beta-lactamases; read-out: MIC. As for the experimental part: as §1, §2
In assay [3] the test system is Serrtia liquefaciens SL/326 A. Description: MIC on beta-lactamase producing strain Serratia liquefaciens SL/326 A (Table IV). On the procedure: as §1, §2
In assay [4] the test system is Proteus vulgaris GN 76/C.1. Description: MIC on beta-lactamase producing strain Proteus vulgaris GN 76/C.1 (Table IV). The settings on record: GN76; Proteus vulgaris GN 76/C.1, producing beta-lactamases; read-out: MIC. As for the experimental part:
as §1, §2

Another assay relates to Escherichia coli 255/L.7. Description: MIC on strain not producing beta-lactamase, Escherichia coli 255/L.7 (Table IV). The settings on record: Escherichia coli 255/L.7 *, not producing beta-lactamases; read-out: MIC. As for the experimental part:
as §1, §2

The next assay concerns Pseudomonas RL 112. The assay is described as follows: MIC, in vitro dilution method, Pseudomonas RL 112 (Table III). To be noted: RL112. The gist of the method:
as §3

Values after ≈ are worked out from the molar mass of the structure shown. Some results are limits rather than exact numbers.

Usually MIC stands for the least concentration at which growth counts as inhibited. As to `CNCCCC(=O)OCC1=C(C(=O)O)N2C(=O)C(NC(=O)/C(=N\OC(C)(C)C(=O)O)c3csc(N)n3)C2[S+]([O-])C1` (stereo not shown) [42 028], the MIC in [1] is at most 0.06 µg/mL; in [2] it was at most 0.12 µg/mL; in the assay on Escherichia coli SOL 90 it was 0.25 µg/mL (≈ 0.416 µM); with Enterobacter RO 154 it was 2 µg/mL (≈ 3.33 µM); with Klebsiella RO 30 it was 0.25 µg/mL (≈ 0.416 µM); in the assay on Citrobacter RL 49 it was 0.5 µg/mL (≈ 0.832 µM). The MIC is 0.5 µg/mL (≈ 0.832 µM) with Serratia RL 72; 0.12 µg/mL (≈ 0.2 µM) in the assay with Escherichia coli 255; 0.12 µg/mL (≈ 0.2 µM) in [3]; 0.25 µg/mL (≈ 0.416 µM) in assay [4]; 0.12 µg/mL (≈ 0.2 µM) in the assay with Escherichia coli 255/L.7; 4 µg/mL (≈ 6.66 µM) against Pseudomonas RL 112.
On to `CC(N)CC(=O)OCC1=C(C(=O)O)N2C(=O)C(NC(=O)C(=NOC(C)(C)C(=O)O)c3csc(N)n3)C2[S+]([O-])C1` (stereo not shown) [42 024], for which the MIC came to 0.06 µg/mL (≈ 0.102 µM) in [1]; 0.25 µg/mL (≈ 0.426 µM) in assay [2]; 0.5 µg/mL (≈ 0.852 µM) with Escherichia coli SOL 90; 2 µg/mL (≈ 3.41 µM) in the assay on Enterobacter RO 154; 0.25 µg/mL (≈ 0.426 µM) in the assay on Klebsiella RO 30; 0.5 µg/mL (≈ 0.852 µM) in the assay on Citrobacter RL 49. Further, the MIC with Serratia RL 72 is 0.5 µg/mL (≈ 0.852 µM); with Escherichia coli 255 it was 0.25 µg/mL (≈ 0.426 µM); in assay [3] it was 0.25 µg/mL (≈ 0.426 µM); in assay [4], 0.25 µg/mL (≈ 0.426 µM); in the assay with Escherichia coli 255/L.7, at most 0.12 µg/mL; with Pseudomonas RL 112, 4 µg/mL (≈ 6.82 µM).
Regarding `CC(C)(ON=C(C(=O)NC1C(=O)N2C(C(=O)O)=C(CSC(=O)C3CCN(C(=O)CN)CC3)C[S+]([O-])C12)c1csc(N)n1)C(=O)O` (stereo not shown) [compound 42673], the minimal inhibitory concentration (MIC) in assay [1] stood at 0.0625 µg/mL (≈ 0.0911 µM); with Escherichia coli 255, 0.25 µg/mL (≈ 0.365 µM); in assay [3] it was 0.25 µg/mL (≈ 0.365 µM); in assay [4] it was 0.25 µg/mL (≈ 0.365 µM); with Escherichia coli 255/L.7 it was 0.25 µg/mL (≈ 0.365 µM).
For `NC[C@H]1CC[C@H](C(=O)OCC2=C(C(=O)O)N3C(=O)C(NC(=O)/C(=N\OC4(C(=O)O)CCC4)c4csc(N)n4)C3[S+]([O-])C2)CC1` (stereo partly shown) [42 212], the MIC is at most 0.12 µg/mL in assay [2]; at most 0.12 µg/mL in the assay on Escherichia coli SOL 90; at most 0.12 µg/mL in the assay on Enterobacter RO 154; at most 0.12 µg/mL in the assay with Klebsiella RO 30; at most 0.12 µg/mL with Citrobacter RL 49; 0.25 µg/mL (≈ 0.383 µM) against Serratia RL 72. This molecule gave an MIC against Pseudomonas RL 112 of 4 µg/mL (≈ 6.13 µM).
`CCNCc1cccc(C(=O)OCC2=C(C(=O)O)N3C(=O)C(NC(=O)/C(=N\OC(C)(C)C(=O)O)c4csc(N)n4)C3[S+]([O-])C2)c1` (stereo not shown) [42 538]: the MIC in [2] is at most 0.125 µg/mL; in the assay with Escherichia coli SOL 90, 0.5 µg/mL (≈ 0.754 µM); in the assay on Enterobacter RO 154, 0.25 µg/mL (≈ 0.377 µM); in the assay with Klebsiella RO 30 it was 0.25 µg/mL (≈ 0.377 µM); in the assay on Citrobacter RL 49 it was 0.25 µg/mL (≈ 0.377 µM); against Serratia RL 72, 0.5 µg/mL (≈ 0.754 µM). This molecule yielded an MIC against Pseudomonas RL 112 of 8 µg/mL (≈ 12.1 µM).
As to `CCC(C)C(N)C(=O)OCC1=C(C(=O)O)N2C(=O)C(NC(=O)C(=NOC(C)(C)C(=O)O)c3csc(N)n3)C2[S+]([O-])C1` (stereo not shown) [41 860], the MIC in assay [2] turned out to be 0.5 µg/mL (≈ 0.813 µM); in the assay on Escherichia coli SOL 90, 2 µg/mL (≈ 3.25 µM); with Enterobacter RO 154, 8 µg/mL (≈ 13 µM); in the assay on Klebsiella RO 30, 0.5 µg/mL (≈ 0.813 µM); in the assay with Citrobacter RL 49 it was 1 µg/mL (≈ 1.63 µM); with Serratia RL 72, 4 µg/mL (≈ 6.51 µM). For the same molecule, the MIC with Pseudomonas RL 112 is 16 µg/mL (≈ 26 µM).
As to `CC(C)(O/N=C(\C(=O)NC1C(=O)N2C(C(=O)O)=C(COC(=O)c3cccc(NC(=O)CCN)c3)C[S+]([O-])C12)c1csc(N)n1)C(=O)O` (stereo not shown) [42 465], the MIC in assay [2] was at most 0.125 µg/mL; with Escherichia coli SOL 90, at most 0.125 µg/mL; in the assay on Enterobacter RO 154, 0.5 µg/mL (≈ 0.723 µM); in the assay on Klebsiella RO 30, 0.5 µg/mL (≈ 0.723 µM); in the assay on Citrobacter RL 49, at most 0.125 µg/mL; in the assay with Serratia RL 72, 2 µg/mL (≈ 2.89 µM). This molecule also had an MIC in the assay on Pseudomonas RL 112 of 8 µg/mL (≈ 11.6 µM).
As for `CC(CN)C(=O)OCC1=C(C(=O)O)N2C(=O)C(NC(=O)C(=NOC(C)(C)C(=O)O)c3csc(N)n3)C2[S+]([O-])C1` (stereo not shown) [42 025], the MIC in [2] was 0.25 µg/mL (≈ 0.426 µM); in the assay with Escherichia coli SOL 90 it was 0.5 µg/mL (≈ 0.852 µM); in the assay on Enterobacter RO 154, 4 µg/mL (≈ 6.82 µM); with Klebsiella RO 30, 0.5 µg/mL (≈ 0.852 µM); in the assay with Citrobacter RL 49, 0.5 µg/mL (≈ 0.852 µM); against Serratia RL 72, 1 µg/mL (≈ 1.7 µM). Besides, the MIC against Pseudomonas RL 112 stood at 4 µg/mL (≈ 6.82 µM).

Values taken from patent publication US4656166A, “Antibiotic compounds derived from cephalosporins, process for their production and pharmaceutical compositions” (Sanofi, priority 1983, dated 1987).
